Patent EP0908457B1, “3-(1,2-benzisothiazol- and isoxazol-5-Y1)-2,4(1H,3H)-pyrimidinedione or thione and 3-(1,2-benzisothiazol- and isoxazol-5-y1)-4(3H)-pyrimidinone or thione herbicidal agents” (BASF AKTIENGESELLSCHAFT, priority 1997, dated 1999)

Columns and labels:
Cyperus iria = experiment: Preemergence weed control under flooded paddy conditions, CYPIR (Rice Flatsedge); format: in vivo; conditions: preemergence, flooded paddy, rated three to four weeks after treatment; for herbicidal effect rating, CYPIR: meaning of each grade not given here
[1] = tested on: Oryza sativa, (L.) Tebonnet; experiment: Rice tolerance to post-transplant applications under flooded paddy conditions (Example 187), ORYSAT (Rice, Tebonnet); conditions: rated three to four weeks after treatment
[2] = tested on: Echinochloa oryzoides (Ard.) Fritsch.; experiment: Preemergence weed control under flooded paddy conditions, ECHORC (Watergrass (Calif.)); format: in vivo; conditions: preemergence, flooded paddy, rated three to four weeks after treatment; for herbicidal effect rating, ECHORC: meaning of each grade not given here
Sagittaria pygmaea, L. = experiment: Preemergence weed control under flooded paddy conditions, SAGPY (Arrowhead (Pygmaea)); format: in vivo; conditions: preemergence, flooded paddy, rated three to four weeks after treatment; for herbicidal effect rating, SAGPY: meaning of each grade not given here
[3] = tested on: Monochoria vaginalis, Presl.; experiment: Preemergence weed control under flooded paddy conditions, MOOVA (Monochoria); format: in vivo; conditions: preemergence, flooded paddy, rated three to four weeks after treatment; for herbicidal effect rating, MOOVA: meaning of each grade not given here
[4] = tested on: Cyperus serotinus, Rottb.; experiment: Preemergence weed control under flooded paddy conditions, CYPSE (Flatsedge); format: in vivo; conditions: preemergence, rated three to four weeks after treatment; for herbicidal effect rating, CYPSE: meaning of each grade not given here

CCCCS(=O)(=O)NC(=O)C(C)Oc1ccc(C)cc1-c1nsc2ccc(-n3c(=O)cc(C(F)(F)F)n(C)c3=O)cc12 (stereo not drawn) [Example 575, Propionamide, N-(butylsulfonyl)-2-{{2-{5-[3,6-dihydro-3-methyl-2,6-dioxo-4-(trifluoromethyl)-1(2H)-pyrimidinyl]-1,2-benzisothiazol-3-yl}-p-tolyl}oxy}-]
4.0: herbicidal effect rating, CYPIR (Cyperus iria; Rate 0.1250 kg/ha) | herbicidal effect rating, MOOVA ([3]; Rate 0.0320 kg/ha) | herbicidal effect rating, MOOVA ([3]; Rate 0.0620 kg/ha)
2.0: herbicidal effect rating ORYSAT ([1]; Rate 0.2500 kg/ha) | herbicidal effect rating, ECHORC ([2]; Rate 0.0320 kg/ha) | herbicidal effect rating, CYPSE ([4]; Rate 0.2500 kg/ha)
9.0: herbicidal effect rating, ECHORC ([2]; Rate 0.2500 kg/ha) | herbicidal effect rating, MOOVA ([3]; Rate 0.1250 kg/ha) | herbicidal effect rating, MOOVA ([3]; Rate 0.2500 kg/ha)
6.0: herbicidal effect rating, CYPIR (Cyperus iria; Rate 0.2500 kg/ha) | herbicidal effect rating, ECHORC ([2]; Rate 0.1250 kg/ha)
3.0: herbicidal effect rating, SAGPY (Sagittaria pygmaea, L.; Rate 0.2500 kg/ha)
5.0: herbicidal effect rating, ECHORC ([2]; Rate 0.0620 kg/ha)
0.0: herbicidal effect rating, CYPIR (Cyperus iria; Rate 0.0320 kg/ha) | herbicidal effect rating, CYPIR (Cyperus iria; Rate 0.0620 kg/ha) | herbicidal effect rating ORYSAT ([1]; Rate 0.0320 kg/ha) | herbicidal effect rating ORYSAT ([1]; Rate 0.0620 kg/ha) | herbicidal effect rating ORYSAT ([1]; Rate 0.1250 kg/ha) | herbicidal effect rating, SAGPY (Sagittaria pygmaea, L.; Rate 0.0320 kg/ha) | herbicidal effect rating, SAGPY (Sagittaria pygmaea, L.; Rate 0.0620 kg/ha) | herbicidal effect rating, SAGPY (Sagittaria pygmaea, L.; Rate 0.1250 kg/ha) | herbicidal effect rating, CYPSE ([4]; Rate 0.0320 kg/ha) | herbicidal effect rating, CYPSE ([4]; Rate 0.0620 kg/ha) | herbicidal effect rating, CYPSE ([4]; Rate 0.1250 kg/ha)

Cn1c(C(F)(F)F)cc(=O)n(-c2ccc3snc(C(C)(C)C#N)c3c2)c1=O [Example 256, 1,2-Benzisothiazole-3-acetonitrile, 5-[3,6-dihydro-3-methyl-2,6-dioxo-4-(trifluoromethyl)-1(2H)-pyrimidinyl)-alpha,alpha-dimethyl-]
0.0: SAGPY herbicidal effect rating (Sagittaria pygmaea, L.; Rate 0.0320 kg/ha) | SAGPY herbicidal effect rating (Sagittaria pygmaea, L.; Rate 0.0620 kg/ha) | CYPSE herbicidal effect rating ([4]; Rate 0.0320 kg/ha)
8.0: CYPIR herbicidal effect rating (Cyperus iria; Rate 0.0320 kg/ha) | ORYSAT herbicidal effect rating ([1]; Rate 0.0620 kg/ha) | ORYSAT herbicidal effect rating ([1]; Rate 0.1250 kg/ha) | SAGPY herbicidal effect rating (Sagittaria pygmaea, L.; Rate 0.2500 kg/ha) | MOOVA herbicidal effect rating ([3]; Rate 0.0320 kg/ha)
3.0: ECHORC herbicidal effect rating ([2]; Rate 0.0620 kg/ha)
2.0: CYPSE herbicidal effect rating ([4]; Rate 0.0620 kg/ha)
1.0: ECHORC herbicidal effect rating ([2]; Rate 0.0320 kg/ha)
4.0: SAGPY herbicidal effect rating (Sagittaria pygmaea, L.; Rate 0.1250 kg/ha)
9.0: CYPIR herbicidal effect rating (Cyperus iria; Rate 0.0620 kg/ha) | CYPIR herbicidal effect rating (Cyperus iria; Rate 0.1250 kg/ha) | CYPIR herbicidal effect rating (Cyperus iria; Rate 0.2500 kg/ha) | ORYSAT herbicidal effect rating ([1]; Rate 0.2500 kg/ha) | ECHORC herbicidal effect rating ([2]; Rate 0.2500 kg/ha) | MOOVA herbicidal effect rating ([3]; Rate 0.0620 kg/ha) | MOOVA herbicidal effect rating ([3]; Rate 0.1250 kg/ha) | MOOVA herbicidal effect rating ([3]; Rate 0.2500 kg/ha) | CYPSE herbicidal effect rating ([4]; Rate 0.2500 kg/ha)
6.0: ORYSAT herbicidal effect rating ([1]; Rate 0.0320 kg/ha) | CYPSE herbicidal effect rating ([4]; Rate 0.1250 kg/ha)
7.0: ECHORC herbicidal effect rating ([2]; Rate 0.1250 kg/ha)

COc1ccccc1Oc1noc2ccc(-n3c(=O)cc(C(F)(F)F)n(C)c3=O)cc12 [Example 43, 3-[3-(o-Methoxyphenoxy)-1,2-benzisoxazol-5-yl]-1-methyl-6-(trifluoromethyl)-2,4(1H,3H)-pyrimidinedione]
6.0: herbicidal effect rating, MOOVA ([3]; 0.0313 kg/ha)
0.0: herbicidal effect rating, CYPIR (Cyperus iria; 0.0313 kg/ha) | herbicidal effect rating, CYPIR (Cyperus iria; 0.0625 kg/ha) | herbicidal effect rating, CYPIR (Cyperus iria; 0.1250 kg/ha) | herbicidal effect rating, CYPIR (Cyperus iria; 0.2500 kg/ha) | herbicidal effect rating, ECHORC ([2]; 0.0313 kg/ha) | herbicidal effect rating, ECHORC ([2]; 0.0625 kg/ha) | herbicidal effect rating, SAGPY (Sagittaria pygmaea, L.; 0.0313 kg/ha) | herbicidal effect rating, SAGPY (Sagittaria pygmaea, L.; 0.0625 kg/ha) | herbicidal effect rating, SAGPY (Sagittaria pygmaea, L.; 0.1250 kg/ha) | herbicidal effect rating, SAGPY (Sagittaria pygmaea, L.; 0.2500 kg/ha) | herbicidal effect rating, CYPSE ([4]; 0.0313 kg/ha) | herbicidal effect rating, CYPSE ([4]; 0.0625 kg/ha) | herbicidal effect rating, CYPSE ([4]; 0.1250 kg/ha) | herbicidal effect rating, CYPSE ([4]; 0.2500 kg/ha)
8.0: herbicidal effect rating, ECHORC ([2]; 0.2500 kg/ha)
9.0: herbicidal effect rating, MOOVA ([3]; 0.0625 kg/ha) | herbicidal effect rating, MOOVA ([3]; 0.1250 kg/ha) | herbicidal effect rating, MOOVA ([3]; 0.2500 kg/ha)
1.0: herbicidal effect rating, ORYSAT (rice tolerance) ([1]; 0.0313 kg/ha)
3.0: herbicidal effect rating, ORYSAT (rice tolerance) ([1]; 0.1250 kg/ha) | herbicidal effect rating, ORYSAT (rice tolerance) ([1]; 0.2500 kg/ha)
2.0: herbicidal effect rating, ORYSAT (rice tolerance) ([1]; 0.0625 kg/ha) | herbicidal effect rating, ECHORC ([2]; 0.1250 kg/ha)

CN(C)S(=O)(=O)NC(=O)c1nsc2ccc(-n3c(=O)cc(C(F)(F)F)n(C)c3=O)cc12 [Example 507, 1,2-Benzisothiazole-3-carboxamide, 5-[3,6-dihydro-3-methyl-2,6-dioxo-4-(trifluoromethyl)-1(2H)-pyrimidinyl]-N-(dimethylsulfamoyl)-]
0.0: CYPSE herbicidal rating ([4]; 0.0320 kg/ha)
9.0: CYPIR herbicidal rating (Cyperus iria; 0.1250 kg/ha) | CYPIR herbicidal rating (Cyperus iria; 0.2500 kg/ha) | SAGPY herbicidal rating (Sagittaria pygmaea, L.; 0.0620 kg/ha) | SAGPY herbicidal rating (Sagittaria pygmaea, L.; 0.1250 kg/ha) | SAGPY herbicidal rating (Sagittaria pygmaea, L.; 0.2500 kg/ha) | MOOVA herbicidal rating ([3]; 0.0320 kg/ha) | MOOVA herbicidal rating ([3]; 0.0620 kg/ha) | MOOVA herbicidal rating ([3]; 0.1250 kg/ha) | MOOVA herbicidal rating ([3]; 0.2500 kg/ha)
5.0: CYPIR herbicidal rating (Cyperus iria; 0.0320 kg/ha) | ORYSAT herbicidal rating (rice tolerance) ([1]; 0.0620 kg/ha) | ORYSAT herbicidal rating (rice tolerance) ([1]; 0.2500 kg/ha)
2.0: ECHORC herbicidal rating ([2]; 0.0320 kg/ha) | ECHORC herbicidal rating ([2]; 0.0620 kg/ha)
6.0: CYPIR herbicidal rating (Cyperus iria; 0.0620 kg/ha)
3.0: ORYSAT herbicidal rating (rice tolerance) ([1]; 0.0320 kg/ha)
7.0: ORYSAT herbicidal rating (rice tolerance) ([1]; 0.1250 kg/ha) | ECHORC herbicidal rating ([2]; 0.2500 kg/ha) | SAGPY herbicidal rating (Sagittaria pygmaea, L.; 0.0320 kg/ha)
4.0: ECHORC herbicidal rating ([2]; 0.1250 kg/ha)

CC(=O)/C=C/c1nsc2ccc(-n3c(=O)cc(C(F)(F)F)n(C)c3=O)cc12 [Example 285, 2,4(1H,3H)-Pyrimidinedione, 1-methyl-3-[3-(3-oxo-1-butenyl)-1,2-benzisothiazol-5-yl]-6-(trifluoromethyl)-, (E)-]
3.0: ORYSAT herbicidal effect rating ([1]; Rate 0.0320 kg/ha) | ECHORC herbicidal effect rating ([2]; Rate 0.0320 kg/ha) | SAGPY herbicidal effect rating (Sagittaria pygmaea, L.; Rate 0.2500 kg/ha)
0.0: SAGPY herbicidal effect rating (Sagittaria pygmaea, L.; Rate 0.0320 kg/ha) | SAGPY herbicidal effect rating (Sagittaria pygmaea, L.; Rate 0.0620 kg/ha) | SAGPY herbicidal effect rating (Sagittaria pygmaea, L.; Rate 0.1250 kg/ha) | CYPSE herbicidal effect rating ([4]; Rate 0.0320 kg/ha) | CYPSE herbicidal effect rating ([4]; Rate 0.0620 kg/ha) | CYPSE herbicidal effect rating ([4]; Rate 0.1250 kg/ha) | CYPSE herbicidal effect rating ([4]; Rate 0.2500 kg/ha)
4.0: MOOVA herbicidal effect rating ([3]; Rate 0.0320 kg/ha)
9.0: CYPIR herbicidal effect rating (Cyperus iria; Rate 0.0620 kg/ha) | CYPIR herbicidal effect rating (Cyperus iria; Rate 0.1250 kg/ha) | CYPIR herbicidal effect rating (Cyperus iria; Rate 0.2500 kg/ha) | MOOVA herbicidal effect rating ([3]; Rate 0.0620 kg/ha) | MOOVA herbicidal effect rating ([3]; Rate 0.1250 kg/ha) | MOOVA herbicidal effect rating ([3]; Rate 0.2500 kg/ha)
5.0: CYPIR herbicidal effect rating (Cyperus iria; Rate 0.0320 kg/ha)
7.0: ORYSAT herbicidal effect rating ([1]; Rate 0.0620 kg/ha) | ORYSAT herbicidal effect rating ([1]; Rate 0.1250 kg/ha) | ORYSAT herbicidal effect rating ([1]; Rate 0.2500 kg/ha) | ECHORC herbicidal effect rating ([2]; Rate 0.0620 kg/ha) | ECHORC herbicidal effect rating ([2]; Rate 0.1250 kg/ha) | ECHORC herbicidal effect rating ([2]; Rate 0.2500 kg/ha)

Cc1ccc(OCC#N)c(-c2nsc3ccc(-n4c(=O)cc(C(F)(F)F)n(C)c4=O)cc23)c1 [Example 57, 3-{3-[6-(Cyanomethoxy)-m-tolyl]-1,2-benzisothiazol-5-yl}-1-methyl-6-(trifluoromethyl)-2,4(1H,3H)-pyrimidinedione]
9.0: herbicidal effect rating, CYPIR (Cyperus iria; 0.0313 kg/ha) | herbicidal effect rating, CYPIR (Cyperus iria; 0.0625 kg/ha) | herbicidal effect rating, CYPIR (Cyperus iria; 0.1250 kg/ha) | herbicidal effect rating, CYPIR (Cyperus iria; 0.2500 kg/ha) | herbicidal effect rating, ECHORC ([2]; 0.0313 kg/ha) | herbicidal effect rating, ECHORC ([2]; 0.0625 kg/ha) | herbicidal effect rating, ECHORC ([2]; 0.1250 kg/ha) | herbicidal effect rating, ECHORC ([2]; 0.2500 kg/ha) | herbicidal effect rating, MOOVA ([3]; 0.0313 kg/ha) | herbicidal effect rating, MOOVA ([3]; 0.0625 kg/ha) | herbicidal effect rating, MOOVA ([3]; 0.1250 kg/ha) | herbicidal effect rating, MOOVA ([3]; 0.2500 kg/ha)
0.0: herbicidal effect rating, SAGPY (Sagittaria pygmaea, L.; 0.0313 kg/ha) | herbicidal effect rating, SAGPY (Sagittaria pygmaea, L.; 0.0625 kg/ha) | herbicidal effect rating, SAGPY (Sagittaria pygmaea, L.; 0.1250 kg/ha) | herbicidal effect rating, SAGPY (Sagittaria pygmaea, L.; 0.2500 kg/ha) | herbicidal effect rating, CYPSE ([4]; 0.0313 kg/ha) | herbicidal effect rating, CYPSE ([4]; 0.0625 kg/ha) | herbicidal effect rating, CYPSE ([4]; 0.1250 kg/ha) | herbicidal effect rating, CYPSE ([4]; 0.2500 kg/ha)
3.0: herbicidal effect rating, ORYSAT (rice tolerance) ([1]; 0.0313 kg/ha)
6.0: herbicidal effect rating, ORYSAT (rice tolerance) ([1]; 0.2500 kg/ha)
5.0: herbicidal effect rating, ORYSAT (rice tolerance) ([1]; 0.1250 kg/ha)
4.0: herbicidal effect rating, ORYSAT (rice tolerance) ([1]; 0.0625 kg/ha)
